Measured values as given in the supplement of paper PMC11061612.

What was measured:
Test in all cases: Bliss excess, mean over the matrix (fraction); higher = more synergy
[1] = tested on: COR-L88 (Small Cell Lung Carcinoma)
In short: (§1)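 Cell lines grown in DMEM/F12 or RPMI with 10% FBS were plated in 1536-well plates and held 24 hours at 37°C, 5% CO2 before 72 hours of exposure to two-drug dose matrices, with DMSO typically at 0.2%. CellTiter-Glo 2.0 luminescence gave viability, which was converted to inhibition. Vehicle wells were set to 0 and blank wells to 1. Combination Emax is the second-highest inhibition in the matrix, and Bliss excess is the observed combination effect minus the expected EA + EB − EA·EB, where EA and EB are the single-agent effects.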

[2] = tested on: OVCAR-3 (Ovarian Carcinoma)
In short: as §1

[3] = tested on: MOLP-8 (Plasma Cell Myeloma)
In short: as §1

[4] = tested on: LS-1034 (Colorectal Carcinoma)
In short: as §1

ES6 (Ewing's Sarcoma) = tested on: ES6 (Ewing's Sarcoma)
In short: as §1

[5] = tested on: C-33-A (Cervical Carcinoma)
In short: as §1

NB1 (Neuroblastoma) = tested on: NB1 (Neuroblastoma)
In short: as §1

[6] = tested on: MM1S (Plasma Cell Myeloma)
In short: as §1

T47D (Breast Carcinoma) = tested on: T47D (Breast Carcinoma)
In short: as §1

[7] = tested on: HT-1080 (Other Solid Carcinomas)
In short: as §1

[8] = tested on: DBTRG-05MG (Glioblastoma)
In short: as §1

[9] = tested on: OAW-28 (Ovarian Carcinoma)
In short: as §1

[10] = tested on: CPC-N (Small Cell Lung Carcinoma)
In short: as §1

[11] = tested on: P32-ISH (Burkitt's Lymphoma)
In short: as §1

NCI-H226 (Mesothelioma) = tested on: NCI-H226 (Mesothelioma)
In short: as §1

[12] = tested on: PA-TU-8988T (Pancreatic Carcinoma)
In short: as §1

GAK (Melanoma) = tested on: GAK (Melanoma)
In short: as §1

SK-N-SH (Neuroblastoma) = tested on: SK-N-SH (Neuroblastoma)
In short: as §1

[13] = tested on: NCI-H1876 (Small Cell Lung Carcinoma)
In short: as §1

[14] = tested on: P30-OHK (B-Lymphoblastic Leukemia)
In short: as §1

Question: For `CC1(C)CCC(CN2CCN(c3ccc(C(=O)NS(=O)(=O)c4ccc(NCC5CCOCC5)c([N+](=O)[O-])c4)c(Oc4cnc5[nH]ccc5c4)c3)CC2)=C(c2ccc(Cl)cc2)C1` [Venetoclax] + CCN(CCO)CCCOc1ccc2c(Nc3cc(CC(=O)Nc4cccc(F)c4)[nH]n3)ncnc2c1 [AZD2811] (first compound max 1 µM, 7x7, partner max 1 µM), which Bliss excess [1] is on record?
Answer: 0.053

Question: What about the Bliss excess [2] of the same molecule?
Answer: -0.0087

Question: And the Bliss excess [3]?
Answer: 0.025

Question: And the Bliss excess [4]?
Answer: -0.0328

Question: And the Bliss excess (ES6 (Ewing's Sarcoma))?
Answer: -0.0166

Question: And the Bliss excess [5]?
Answer: -0.0928

Question: What about the Bliss excess (NB1 (Neuroblastoma)) of the same molecule?
Answer: -0.0139

Question: What about the Bliss excess [6] of the same molecule?
Answer: 0.0157

Question: And the Bliss excess (T47D (Breast Carcinoma))?
Answer: 0.0229

Question: And the Bliss excess [7]?
Answer: -0.0407

Question: What about the Bliss excess [8] of the same molecule?
Answer: -0.0171

Question: And the Bliss excess [9]?
Answer: 0.0375

Question: What about the Bliss excess [10] of the same molecule?
Answer: -0.048

Question: What about the Bliss excess [11] of the same molecule?
Answer: -0.0282

Question: What about the Bliss excess (NCI-H226 (Mesothelioma)) of the same molecule?
Answer: -0.0604

Question: And the Bliss excess [12]?
Answer: -0.0549

Question: And the Bliss excess (GAK (Melanoma))?
Answer: -0.0537

Question: What about the Bliss excess (SK-N-SH (Neuroblastoma)) of the same molecule?
Answer: 0.0471

Question: What about the Bliss excess [13] of the same molecule?
Answer: 0.129

Question: What about the Bliss excess [14] of the same molecule?
Answer: 0.0653

Question: What does the source list for `CC1(C)CCC(CN2CCN(c3ccc(C(=O)NS(=O)(=O)c4ccc(NCC5CCOCC5)c([N+](=O)[O-])c4)c(Oc4cnc5[nH]ccc5c4)c3)CC2)=C(c2ccc(Cl)cc2)C1` [Venetoclax] + CN(C)CCCOc1ccc(-c2ccc3ncc4c(c3c2)n(C2CCOCC2)c(=O)n4C)cn1 [AZD0156] (first compound max 1 µM, 7x7, partner max 1 µM)?
Answer: Bliss excess [1]: -0.0237; Bliss excess [2]: -0.0303; Bliss excess [3]: 0.0203; Bliss excess [4]: -0.052; Bliss excess (ES6 (Ewing's Sarcoma)): -0.0201; Bliss excess [5]: -0.002; Bliss excess (NB1 (Neuroblastoma)): -0.0278; Bliss excess [6]: 0.0344; Bliss excess (T47D (Breast Carcinoma)): -0.0366; Bliss excess [7]: -0.0434; Bliss excess [8]: -0.008; Bliss excess [9]: 0.0076; Bliss excess [10]: -0.0013; Bliss excess [11]: -0.0083; Bliss excess (NCI-H226 (Mesothelioma)): -0.0536; Bliss excess [12]: -0.0102; Bliss excess (GAK (Melanoma)): -0.0378; Bliss excess (SK-N-SH (Neuroblastoma)): -0.0542; Bliss excess [13]: 0.0501; Bliss excess [14]: 0.0881

Question: With `CC1(C)CCC(CN2CCN(c3ccc(C(=O)NS(=O)(=O)c4ccc(NCC5CCOCC5)c([N+](=O)[O-])c4)c(Oc4cnc5[nH]ccc5c4)c3)CC2)=C(c2ccc(Cl)cc2)C1` [Venetoclax] + COc1cc(Nc2ncc3c(n2)-c2ccc(Cl)cc2C(c2c(F)cccc2OC)=NC3)ccc1C(=O)O [Alisertib] (first compound max 1 µM, 7x7, partner max 10 µM) as the molecule, how does the Bliss excess [1] read?
Answer: 0.11

Question: What about the Bliss excess [2] of the same molecule?
Answer: -0.0234

Question: What about the Bliss excess [3] of the same molecule?
Answer: 0.141

Question: What about the Bliss excess [4] of the same molecule?
Answer: -0.0252

Question: What about the Bliss excess (ES6 (Ewing's Sarcoma)) of the same molecule?
Answer: -0.0324

Question: And the Bliss excess [5]?
Answer: -0.0225

Question: And the Bliss excess (NB1 (Neuroblastoma))?
Answer: 0.117

Question: And the Bliss excess [6]?
Answer: 0.078

Question: What about the Bliss excess (T47D (Breast Carcinoma)) of the same molecule?
Answer: -0.0093

Question: And the Bliss excess [7]?
Answer: 0.0087

Question: What about the Bliss excess [8] of the same molecule?
Answer: -0.0248

Question: What about the Bliss excess [9] of the same molecule?
Answer: 0.0736

Question: And the Bliss excess [10]?
Answer: -0.047

Question: What about the Bliss excess [11] of the same molecule?
Answer: -0.0078

Question: And the Bliss excess (NCI-H226 (Mesothelioma))?
Answer: -0.089

Question: And the Bliss excess [12]?
Answer: 0.0042

Question: And the Bliss excess (GAK (Melanoma))?
Answer: -0.0359

Question: What about the Bliss excess (SK-N-SH (Neuroblastoma)) of the same molecule?
Answer: 0.0326

Question: And the Bliss excess [13]?
Answer: 0.0228

Question: What about the Bliss excess [14] of the same molecule?
Answer: 0.178
